Results taken from US9981928B2, “Aryl sulfide derivatives and aryl sulfoxide derivatives as acaricides and insecticides” (BAYER CROPSCIENCE AKTIENGESELLSCHAFT, priority 2013, dated 2018).
Read-outs that look alike come from different tables or passages of the source.

Legend:
[1] = test system: greenhouse red spider mite (Tetranychus urticae); assay: Tetranychus urticae spray test, OP-resistant (TETRUR), bean leaf disks; format: in vivo; conditions: bean leaf disks, application rate 500 g/ha, after 6 days; for pest or weed control at 500 g/ha: Tetranychus urticae, foliar, 144 h, read-out: efficacy in %
How it was run: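 Bean leaf disks carrying all stages of OP-resistant Tetranychus urticae sprayed with compound in acetone/dimethylformamide diluted in emulsifier water. Kill assessed after 6 days as % efficacy, 100% meaning all mites dead.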

[2] = test system: cattle ticks (Boophilus microplus); assay: Boophilus microplus injection test (BOOPMI inj); format: in vivo; conditions: injection into the abdomen; application rate 20 μg/animal; assessed after 7 days
Description: Boophilus microplus—Injection Test (BOOPMI inj)
(§1) Solvent: dimethyl sulfoxide
To produce a suitable preparation of active compound, 10 mg of active compound are mixed with 0.5 ml of solvent and the concentrate is diluted with solvent to the desired concentration.
1 μl of the active compound solution is injected into the abdomen of 5 engorged adult female cattle ticks (Boophilus microplus). The animals are transferred into dishes and kept in a climate-controlled room.
(§2) Efficacy is assessed after 7 days by laying of fertile eggs. Eggs which are not visibly fertile are stored in a climate-controlled cabinet until the larvae hatch after about 42 days. An efficacy of 100% means that none of the ticks has laid any fertile eggs; 0% means that all the eggs are fertile.

[3] = test system: southern root-knot nematode (Meloidogyne incognita); assay: Meloidogyne incognita test (MELGIN); format: in vivo; conditions: lettuce in sand; application rate 20 ppm; after 14 days
Description: Meloidogvne incognita test (MELGIN)
Solvent: 125.0 parts by weight of acetone
To produce a suitable preparation of active compound, 1 part by weight of active compound is mixed with the stated amount of solvent and the concentrate is diluted with water to the desired concentration.
Vessels are filled with sand, active compound solution, an egg/larvae suspension of the southern root-knot nematode (Meloidogyne incognita) and lettuce seeds. The lettuce seeds germinate and the plants develop. The galls develop on the roots.
After 14 days, the nematicidal efficacy in % is determined by the formation of galls. 100% means that no galls were found; 0% means that the number of galls on the treated plants corresponds to the untreated control.

[4] = log P determination by HPLC on reversed-phase columns (C 18), analogously to OECD Guideline 117; format: physicochemical; conditions: for logP (HCOOH): LC-MS in the acidic range, pH 2.7, 0.1% aqueous formic acid / acetonitrile; for logP (HCOOH) / logP (neutral): HPLC reversed-phase C 18; for logP (neutral): LC-MS in the neutral range, pH 7.8, 0.001 molar aqueous ammonium hydrogencarbonate / acetonitrile; for chromatographic logP: reversed-phase C18 HPLC column
How it was run: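 Reversed-phase C18 HPLC per OECD 117 with LC-MS detection and a linear 10→95% acetonitrile gradient. Acidic log P run at pH 2.7 with 0.1% formic acid in both eluents. Neutral log P run at pH 7.8 with 0.001 M aqueous ammonium hydrogencarbonate.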

[5] = test system: larvae of the mustard beetle (Phaedon cochleariae); assay: Phaedon cochleariae spray test (PHAECO); format: in vivo; conditions: Chinese cabbage leaf disks; application rate 500 g/ha; after 7 days
Description: Phaedon cochleariae—Spray Test (PHAECO)
(§3) Solvent: 78.0 parts by weight of acetone
(§4) • 1.5 parts by weight of dimethylformamide Emulsifier: alkylaryl polyglycol ether
(§5) To produce a suitable preparation of active compound, 1 part by weight of active compound is dissolved using the stated parts by weight of solvent and made up with water containing an emulsifier concentration of 1000 ppm until the desired concentration is attained. To produce further test concentrations, the preparation is diluted with emulsifier-containing water.
After 7 days, the efficacy in % is determined. 100% means that all the beetle larvae have been killed; 0% means that no beetle larvae have been killed.

[6] = test system: cattle ticks (Boophilus microplus) Parkhurst strain, SP-resistant; assay: Boophilus microplus dip test (BOOPMI Dip); format: in vivo; conditions: engorged adult female ticks dipped; application rate 100 ppm; assessed after 7 days
Description: Boophilus microplus—Dip Test (BOOPMI Dip)
Test animals: cattle ticks (Boophilus microplus) Parkhurst strain, SP-resistant
as §1
10 mg of active compound are dissolved in 0.5 ml of dimethyl sulfoxide. To produce a suitable formulation, the active compound solution is diluted with water to the concentration desired in each case.
This active compound preparation is pipetted into tubes. 8-10 engorged adult female cattle ticks (Boophilus microplus) are transferred into a further tube with holes. The tube is immersed into the active compound preparation, and all the ticks are completely wetted. After the liquid has run out, the ticks are transferred on filter disks into plastic dishes and stored in a climate-controlled room.
as §2

Amblyomma hebraeum = Amblyomma hebraeum test (AMBYHE), tick nymph immersion; format: in vivo; conditions: tick nymphs immersed for one minute; application rate 100 ppm; after 42 days
Description: Amblyomma hebaraeum Test (AMBYHE)
as §1
To produce a suitable preparation of active compound, 10 mg of active compound are mixed with 0.5 ml of dimethyl sulfoxide, and the concentrate is diluted with water to the desired concentration.
Tick nymphs (Amblyomma hebraeum) are placed into perforated plastic beakers and immersed in the desired concentration for one minute. The ticks are transferred on filter paper into a Petri dish and stored in a climate-controlled cabinet.
After 42 days, the kill in % is determined. 100% means that all of the ticks have been killed; 0% means that none of the ticks have been killed.

[7] = test system: green peach aphid (Myzus persicae); assay: Myzus persicae spray test (MYZUPE); format: in vivo; conditions: Chinese cabbage leaf disks; application rate 500 g/ha; after 6 days
Description: Myzus persicae—Spray Test (MYZUPE)
Solvent: 78 parts by weight of acetone
as §4, §5
Disks of Chinese cabbage leaves (Brassica pekinensis) infested by all stages of the green peach aphid (Myzus persicae) are sprayed with an active compound preparation of the desired concentration.
After 6 days, the efficacy in % is determined. 100% means that all the aphids have been killed; 0% means that none of the aphids have been killed.

[8] = test system: caterpillars of the armyworm (Spodoptera frugiperda); assay: Spodoptera frugiperda spray test (SPODFR); format: in vivo; conditions: maize leaf disks; application rate 500 g/ha; after 7 days
Description: Spodoptera frugiperda—Spray Test (SPODFR)
as §3, §4, §5
Leaf disks of maize (Zea mays) are sprayed with an active compound preparation of the desired concentration and, after drying, populated with caterpillars of the armyworm (Spodoptera frugiperda).
After 7 days, the efficacy in % is determined. 100% means that all the caterpillars have been killed; 0% means that no caterpillars have been killed.

[9] = acidic range, pH 2.7, 0.1% aqueous formic acid and acetonitrile, read-out: log P[a] / log P(HCOOH)
[10] = neutral range, pH 7.8, 0.001 molar aqueous ammonium hydrogencarbonate and acetonitrile, read-out: log P[b] / log P(neutral)

| Structure (SMILES) | efficacy in % [1] | efficacy (laying of fertile eggs) [2] | nematicidal efficacy in % (formation of galls) [3] | logP (HCOOH) [4] | logP (neutral) [4] | efficacy in % [5] | other results |
| --- | --- | --- | --- | --- | --- | --- | --- |
| Cc1cc(F)c(-n2c(=O)n(C3CC3)c(=O)n2C)cc1[S+]([O-])CC(F)(F)F (stereo not shown) [Example 34] | 100% | 100% | 90% | 1.91 | 1.88 |  |  |
| Cc1cc(F)c(-n2c(=O)n(C3CC3)c(=O)n2C)cc1SCC(F)(F)F [Example 35] | 100% | 100% | 100% | 2.83 | 2.81 |  |  |
| Cc1ccc(-n2c(=O)n(C3CC3)c(=O)n2C)cc1[S+]([O-])CC(F)(F)F (stereo not shown) [Example 37] | 100% | 100% | 100% | 1.89 | 1.87 |  |  |
| Cc1ccc(-n2c(=O)n(C)c(=O)n2CC2CC2)cc1SCC(F)(F)F [Example 52] | 100% |  | 100% | 3.34 | 3.29 | 100% |  |
| Cn1c(=O)n(C2CC2)c(=O)n1-c1ccc(C(F)(F)F)c([S+]([O-])CC(F)(F)F)c1 (stereo not shown) [Example 54] | 100% | 100% | 90% | 2.63 | 2.58 |  |  |
| Cc1ccc(-n2c(=O)n(C)c(=O)n2Cc2ccccc2)cc1SCC(F)(F)F [Example 57] |  |  |  | 3.62 | 3.56 | 100% |  |
| Cc1ccc(-n2c(=O)n(C)c(=O)n2Cc2ccccc2Cl)cc1SCC(F)(F)F [Example 60] |  |  |  | 3.80 | 3.75 | 83% |  |
| Cc1ccc(-n2c(=O)n(C)c(=O)n2-c2ccc(C)c([S+]([O-])CC(F)(F)F)c2)cc1SCC(F)(F)F (stereo not shown) [Example 84] |  |  |  | 3.46 | 3.38 | 100% |  |
| Cc1cc(F)c(-n2c(=O)n(C(C)C)c(=O)n2C)cc1SCC(F)(F)F [Example 91] | 100% | 100% |  | 3.35 | 3.28 |  | efficacy (laying of fertile eggs) [6]: 100%; kill in % (Amblyomma hebraeum): 100% |
| Cc1ccc(-n2c(=O)n(C(C)C)c(=O)n2C)cc1[S+]([O-])CC(F)(F)F (stereo not shown) [Example 141] | 90% | 100% |  | 2.27 | 2.24 |  | efficacy (laying of fertile eggs) [6]: 90%; efficacy in % [7]: 100% |
| Cc1cc(F)c(-n2[nH]c(=O)n(-c3cccc(Cl)c3)c2=O)cc1SCC(F)(F)F [Example 157] |  |  |  | 3.31 | 1.33 |  | efficacy in % [8]: 100% |
| Cc1cc(F)c(N2C(=O)C(=O)N(C3CCCCC3)C2=O)cc1SCC(F)(F)F [Example 185, 1-Cyclohexyl-3-{2-fluoro-4-methyl-5-[(2,2,2-trifluoroethyl)sulfanyl]phenyl}imidazolidine-2,4,5-trione] |  |  |  |  |  | 100% | pest or weed control at 500 g/ha [1]: 90%; chromatographic logP [4, 9]: 4.32; chromatographic logP [4, 10]: 4.27 |
| Cc1cc(F)c(N2C(=O)C(=O)N(C3CCCCC3)C2=O)cc1[S+]([O-])CC(F)(F)F (stereo not shown) [Example 186, 1-Cyclohexyl-3-{2-fluoro-4-methyl-5-[(2,2,2-trifluoroethyl)sulfinyl]phenyl}imidazolidin-2,4,5-trion] |  |  |  |  |  | 100% | pest or weed control at 500 g/ha [1]: 100%; chromatographic logP [4, 9]: 3.36; chromatographic logP [4, 10]: 3.33 |
| Cc1cc(F)c(N2C(=O)C(=O)N(CC(F)(F)F)C2=S)cc1[S+]([O-])CC(F)(F)F (stereo not shown) [Example 190] | 90% |  |  | 3.03 |  | 100% |  |
| Cc1cc(F)c(N2CCN(C)C2=O)cc1SCC(F)(F)F [Example 198] | 100% |  |  | 2.79 | 2.75 | 83% |  |
| Cc1cc(F)c(N2C(=O)CN(C)C2=O)cc1SCC(F)(F)F [Example 200] | 90% |  |  | 2.42 | 2.33 | 100% | efficacy in % [8]: 100% |
| Cc1cc(F)c(N2C(=O)OC(C)C2=O)cc1[S+]([O-])CC(F)(F)F (stereo not shown) [Example 206] |  |  |  | 2.08 |  |  | efficacy in % [7]: 100% |
| Cc1cc(F)c(-n2[nH]c(=O)n(C3CC3)c2=O)cc1SCC(F)(F)F [Example 207] | 90% |  |  | 1.57 | −0.23 |  | efficacy in % [8]: 83% |
| Cc1cc(F)c(N2CC(=O)N(C)C2=O)cc1[S+]([O-])CC(F)(F)F (stereo not shown) [Example 208] | 100% | 100% | 90% | 1.68 |  |  |  |
| Cc1cc(F)c(N2CC(=O)N(C3CC3)C2=O)cc1[S+]([O-])CC(F)(F)F (stereo not shown) [Example 209] | 100% | 100% | 90% | 1.92 |  |  |  |
| Cc1cc(F)c(N2CC(=O)N(C3CC3)C2=O)cc1SCC(F)(F)F [Example 210] | 100% | 100% | 90% | 2.91 |  |  |  |
| Cc1cc(F)c(N2CC(=O)N(C)C2=O)cc1SCC(F)(F)F [Example 211] | 100% | 100% |  | 2.66 |  | 83% |  |
